T1: TTERecF-ATP dimer (Thermoanaerobacter tengcongensis MB4, UniProt Q8RDL3 1-364)
T1 sequence: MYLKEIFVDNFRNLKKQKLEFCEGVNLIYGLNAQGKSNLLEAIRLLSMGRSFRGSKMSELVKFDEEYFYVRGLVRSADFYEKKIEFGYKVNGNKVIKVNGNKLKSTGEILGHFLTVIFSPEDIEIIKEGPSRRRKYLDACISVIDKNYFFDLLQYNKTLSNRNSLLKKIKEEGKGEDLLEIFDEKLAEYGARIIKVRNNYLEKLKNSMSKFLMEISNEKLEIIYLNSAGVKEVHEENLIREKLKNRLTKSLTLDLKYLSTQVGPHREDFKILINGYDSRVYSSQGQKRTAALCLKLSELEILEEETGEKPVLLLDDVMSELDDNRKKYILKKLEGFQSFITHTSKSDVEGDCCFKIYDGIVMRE


Experiments:
TTERecF [1] = biological target: T2, TTERecF (Caldanaerobacter subterraneus, UniProt Q8RDL3, S282A); experiment: isothermal titration calorimetry; type: binding; settings: pH 7.0, 20 mM Tris-HCl, 200 mM NaCl, 25 °C; one-site model; signature motif mutant
T2 construct: gene recF; 42 kDa monomer, 84 kDa dimer with ATP or ATPγS
T2 sequence (Q8RDL3 whole entry S282A): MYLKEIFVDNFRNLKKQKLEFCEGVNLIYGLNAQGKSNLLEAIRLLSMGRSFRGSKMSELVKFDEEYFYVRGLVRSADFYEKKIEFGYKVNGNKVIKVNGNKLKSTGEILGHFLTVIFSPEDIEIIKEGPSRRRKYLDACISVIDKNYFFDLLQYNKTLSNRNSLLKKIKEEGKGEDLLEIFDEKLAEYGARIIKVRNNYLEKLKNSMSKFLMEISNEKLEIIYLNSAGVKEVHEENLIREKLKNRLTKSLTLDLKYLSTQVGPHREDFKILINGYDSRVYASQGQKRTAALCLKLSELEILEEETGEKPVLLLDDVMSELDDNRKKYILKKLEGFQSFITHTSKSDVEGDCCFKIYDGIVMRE

TTERecF [2] = biological target: T3, TTERecF (Caldanaerobacter subterraneus, UniProt Q8RDL3, S37A); experiment: isothermal titration calorimetry; type: binding
T3 construct: gene recF; 42 kDa monomer, 84 kDa dimer with ATP or ATPγS
T3 sequence (Q8RDL3 whole entry S37A): as the sequence (Q8RDL3 whole entry S282A) above, with S37A, A282S counted along it

TTERecF [3] = biological target: T4, TTERecF (Caldanaerobacter subterraneus, UniProt Q8RDL3, N38A); experiment: isothermal titration calorimetry; type: binding; settings: pH 7.0, 20 mM Tris-HCl, 200 mM NaCl, 25 °C; one-site model; Walker A mutant
T4 construct: gene recF; 42 kDa monomer, 84 kDa dimer with ATP or ATPγS
T4 sequence (Q8RDL3 whole entry N38A): as the sequence (Q8RDL3 whole entry S282A) above, with N38A, A282S counted along it

TTERecF [4] = biological target: T5, TTERecF (Caldanaerobacter subterraneus, UniProt Q8RDL3); experiment: isothermal titration calorimetry; type: binding
T5 construct: gene recF; 42 kDa monomer, 84 kDa dimer with ATP or ATPγS

TTERecF [5] = biological target: T6, TTERecF (Caldanaerobacter subterraneus, UniProt Q8RDL3, Q286A); experiment: isothermal titration calorimetry; type: binding; settings: pH 7.0, 20 mM Tris-HCl, 200 mM NaCl, 25 °C; one-site model; signature motif mutant
T6 construct: gene recF; 42 kDa monomer, 84 kDa dimer with ATP or ATPγS
T6 sequence (Q8RDL3 whole entry Q286A): as the sequence (Q8RDL3 whole entry S282A) above, with A282S, Q286A counted along it

TTERecF [6] = biological target: T7, TTERecF (Caldanaerobacter subterraneus, UniProt Q8RDL3, G35A); experiment: isothermal titration calorimetry; type: binding; settings: pH 7.0, 20 mM Tris-HCl, 200 mM NaCl, 25 °C; one-site model; Walker A mutant
T7 construct: gene recF; 42 kDa monomer, 84 kDa dimer with ATP or ATPγS
T7 sequence (Q8RDL3 whole entry G35A): as the sequence (Q8RDL3 whole entry S282A) above, with G35A, A282S counted along it

TTERecF [7] = biological target: T8, TTERecF (Caldanaerobacter subterraneus, UniProt Q8RDL3, S283A); experiment: isothermal titration calorimetry; type: binding; settings: pH 7.0, 20 mM Tris-HCl, 200 mM NaCl, 25 °C; one-site model; signature motif mutant
T8 construct: gene recF; 42 kDa monomer, 84 kDa dimer with ATP or ATPγS
T8 sequence (Q8RDL3 whole entry S283A): as the sequence (Q8RDL3 whole entry S282A) above, with A282S, S283A counted along it

TTERecF [8] = biological target: T9, TTERecF (Caldanaerobacter subterraneus, UniProt Q8RDL3, K36A); experiment: isothermal titration calorimetry; type: binding
T9 construct: gene recF; 42 kDa monomer, 84 kDa dimer with ATP or ATPγS
T9 sequence (Q8RDL3 whole entry K36A): as the sequence (Q8RDL3 whole entry S282A) above, with K36A, A282S counted along it

TTERecF-ATP dimer = biological target: T1, TTERecF-ATP dimer; experiment: BLI; ATP (1 mM in preincubation); kd 1.44E-03 s-1; BLI: 20 mM Tris-HCl pH 7.0, 200 mM NaCl, 0.05% Tween 20, 25 C; biotinylated DNA on streptavidin sensors; no Mg2+ stated; settings: protein: recombinant; tags: N-terminal His6; chain copies: 2; label: 5' biotin

Molecule	KD (TTERecF [1])	Kd (TTERecF [2]) [µM]	hardly interacted (TTERecF [3])	Kd (TTERecF [4]) [µM]	KD (TTERecF [5])	hardly interacted (TTERecF [6])	KD (TTERecF [7])	Kd (TTERecF [8]) [µM]	Kd (TTERecF-ATP dimer) [nM]
Nc1ncnc2c1ncn2[C@@H]1O[C@H](COP(=O)(O)OP(=O)(O)OP(=O)(O)O)[C@@H](O)[C@H]1O [ATP]	conserved mutant residues S282A, S283A, and Q286A in signature motif was similar	27 ± 7.9	The mutants G35A and N38A hardly interacted with ATP	1.3	conserved mutant residues S282A, S283A, and Q286A in signature motif was similar	The mutants G35A and N38A hardly interacted with ATP	conserved mutant residues S282A, S283A, and Q286A in signature motif was similar	38 ± 8.7	–
Nc1ncnc2c1ncn2[C@@H]1O[C@H](CO[P@](=O)(O)O[P@](=O)(O)O[P@@](=O)(O)S)[C@@H](O)[C@H]1O [ATPɤS]	–	–	–	32	–	–	–	–	–
ACCTTATGGAAAGCATCGTAG (ssDNA) [21mer ssDNA]	–	–	–	–	–	–	–	–	16

Reference: article PMC5794780, “ATP-dependent conformational change in ABC-ATPase RecF serves as a switch in DNA repair” (Scientific Reports, 2018)
